Assays:
[1] = target: T1, h P2X3 (Homo sapiens, UniProt P56373); assay: In vitro electrophysiology assay for P2X3 (automated whole-cell patch clamp, Sophion Qube); type: cell-based; details: range of activity
T1 sequence (P56373 1-397): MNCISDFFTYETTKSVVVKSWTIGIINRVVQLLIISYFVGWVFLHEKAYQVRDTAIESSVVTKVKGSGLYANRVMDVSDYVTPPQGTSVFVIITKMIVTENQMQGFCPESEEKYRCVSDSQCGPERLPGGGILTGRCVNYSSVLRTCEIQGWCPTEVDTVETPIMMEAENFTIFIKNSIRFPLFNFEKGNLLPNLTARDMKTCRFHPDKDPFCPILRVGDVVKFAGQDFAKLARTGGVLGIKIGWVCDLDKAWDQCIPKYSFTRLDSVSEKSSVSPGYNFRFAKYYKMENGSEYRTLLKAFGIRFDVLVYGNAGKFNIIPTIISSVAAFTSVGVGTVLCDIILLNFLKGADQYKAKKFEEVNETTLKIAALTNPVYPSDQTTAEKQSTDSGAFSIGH
How it was run: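 Whole-cell automated patch clamp at room temperature, cells held at −60 mV; after two 800 nM α,β-MeATP baseline responses, antagonist preincubated 10 min then co-applied with 800 nM α,β-MeATP. Inhibition of peak current vs second agonist response; IC50 from 10-concentration curves, one concentration per cell.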

[2] = target: T2, h P2X2/3 (Homo sapiens, UniProt P56373+Q9UBL9); assay: In vitro electrophysiology assay for P2X2/3 (same protocol, 10 μM ATP as agonist); type: cell-based; details: Table 7, range of activity
T2 sequence (P56373 1-397): T1 sequence (P56373 1-397)
T2 sequence (Q9UBL9 1-471): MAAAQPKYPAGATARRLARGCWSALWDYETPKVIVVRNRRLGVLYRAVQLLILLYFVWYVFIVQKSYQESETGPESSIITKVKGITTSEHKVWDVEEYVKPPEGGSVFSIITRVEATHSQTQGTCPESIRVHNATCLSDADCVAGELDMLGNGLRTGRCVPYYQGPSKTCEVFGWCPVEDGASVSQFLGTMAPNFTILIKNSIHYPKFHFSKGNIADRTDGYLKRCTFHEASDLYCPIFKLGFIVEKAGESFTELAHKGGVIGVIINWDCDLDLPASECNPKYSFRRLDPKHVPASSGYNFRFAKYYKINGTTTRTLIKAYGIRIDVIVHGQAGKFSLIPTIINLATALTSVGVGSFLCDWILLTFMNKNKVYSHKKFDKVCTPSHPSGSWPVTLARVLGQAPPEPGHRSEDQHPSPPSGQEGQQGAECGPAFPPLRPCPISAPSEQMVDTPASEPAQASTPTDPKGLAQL
Description: Cells expressing P2X3 receptors were grown according to standard practice and maintained at 37° C. in a 5% humidified CO2 atmosphere. The cells were seeded into T175 flask 2 days prior to the day of the assay and dissociated from the flasks using TrypLE when grown to confluence of 80-90%. The dissociated cells were resuspended in serum free media at a cell density of 3×10^6 cells/ml and loaded onto the Sophion Qube automated patch-clamp system. The extracellular assay buffer contained 145 mM NaCl, 4 mM KCl, 2 mM CaCl2), 1 mM MgCl2, 10 mM HEPES, and 10 mM glucose at pH 7.4. The intracellular assay solution contained 140 mM CsF, 10 mM NaCl, 10 mM EGTA, 10 mM HEPES at pH 7.2. Agonist stock solutions were prepared in H2O and diluted in bath solution prior to use. All antagonists were prepared as 10 mM stock solutions in DMSO and diluted in bath solution prior to use. All experiments were performed under the whole-cell patch clamp configuration at room temperature with 384 individual cells being voltage clamped at −60 mV simultaneously on the Sophion Qube instrument. Two baseline responses were established with the application of α,β-MeATP (800 nM), with the subsequent agonist applications being washed out using extracellular assay buffer containing 0.5 U/ml apyrase. Following the second agonist application, antagonist was incubated in the absence of α,β-MeATP for 10 minutes. After antagonist preincubation, 800 nM α,β-MeATP and antagonist were co-administered to determine the inhibitory effect of the antagonist. One concentration of an antagonist was assessed against a single cell, with different concentrations of the antagonist applied to other cells on the 384 recording substrate. The control P2X3 current amplitude was taken from the peak current amplitude from the second agonist response prior to preincubation with antagonist. The peak P2X3 current amplitude in the presence of antagonist was used to calculate the inhibitory effect at each concentration of the antagonist according to the following equation: […]
Concentration-response curves were constructed from ten different concentrations with each concentration of antagonist tested on at least two individual cells. The concentration of the antagonist to inhibit P2X3 current by 50% (IC50) was determined by fitting the data with the following equation: […]
Where ‘a’ is minimum response, ‘b’ is maximum response, ‘c’ is IC50 and ‘d’ is Hill slope.
Representative compound of the present invention have been also tested for P2X2/3 receptor.
The same assay protocol was used for the P2X2/3 assay as the P2X3 assay with two modifications: 1) 10 μM ATP was used as the agonist; and 2) the mean current amplitude was measured seven seconds after the application of agonist.

[3] = Table 6, inhibition of P2X3 current, agonist α,β-MeATP (800 nM)

Row | IC50 [1, 3] [µM] | IC50 ([1]; Table 7) [µM] | IC50 [2] [µM] | Compound
1 | < 0.316 | < 0.316 | 0.316 to 3.16 | COc1cc(-c2ncc(C)cn2)cc2c(NCc3ccc(C(F)(F)F)nc3)ncnc12 [Example 155]
2 | < 0.316 | < 0.316 | 3.16 to 31.6 | COc1cc(-c2ncc(C)cc2F)cc2c(N[C@H](C)c3noc(C)n3)ncnc12 [Example 157, 6-(3-fluoro-5-methyl-2-pyridyl)-8-methoxy-N-[(1R)-1-(5-methyl-1,2,4-oxadiazol-3-yl)ethyl]quinazolin-4-amine]
3 | < 0.316 | < 0.316 | 3.16 to 31.6 | COc1cc(-c2ccc(C)cn2)cc2c(N[C@H](C)c3ccn(C)n3)ncnc12 [Example 159, 8-methoxy-N-[(1R)-1-(1-methylpyrazol-3-yl)ethyl]-6-(5-methyl-2-pyridyl)quinazolin-4-amine]

Row | Compound | IC50 [1, 3] [µM] | IC50 ([1]; Table 7) [µM] | IC50 [2] [µM]
4 | COc1cc(-c2ncc(C)cn2)cc2c(NCc3ccc(C)nc3)ncnc12 [Example 154, 8-methoxy-N-((6-methylpyridin-3-yl)methyl)-6-(5-methylpyrimidin-2-yl)quinazolin-4-amine] | < 0.316 | < 0.316 | 0.316 to 3.16
